In patent publication US8063225B2, “Tricyclic compound derivatives useful in the treatment of neoplastic diseases, inflammatory disorders and immunomodulatory disorders” (Chembridge Corporation, priority 2006, dated 2011):

Legend:
[1] = tested on: Karpas-299; assay: Cell proliferation inhibition, Cell Titer-Glo, Karpas-299; type: cell-based; conditions: Homo sapiens; cell proliferation assay, Karpas-299 cells
Summary of the method: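 Karpas 299 cells were seeded into white, clear-bottomed 384-well culture plates at 2500-5000 cells per well and exposed to serial dilutions of test compounds for about 3 days. Viable cell numbers were then measured with the Cell Titer-Glo Luminescent Cell Viability Assay (Promega), which detects total ATP, and IC50 values for proliferation inhibition were derived.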

[2] = target: T1, Alk (Homo sapiens, UniProt Q9UM73); assay: Tyrosine kinase assay (Kinase-Glo or AlphaScreen), Alk; conditions: biochemical tyrosine kinase assay
T1 construct: 6×His- or GST-tagged kinase domain fragments of the corresponding RTKs expressed in baculovirus system; host or cells: baculovirus system
T1 sequence (Q9UM73 1116-1392 limits assumed, species assumed): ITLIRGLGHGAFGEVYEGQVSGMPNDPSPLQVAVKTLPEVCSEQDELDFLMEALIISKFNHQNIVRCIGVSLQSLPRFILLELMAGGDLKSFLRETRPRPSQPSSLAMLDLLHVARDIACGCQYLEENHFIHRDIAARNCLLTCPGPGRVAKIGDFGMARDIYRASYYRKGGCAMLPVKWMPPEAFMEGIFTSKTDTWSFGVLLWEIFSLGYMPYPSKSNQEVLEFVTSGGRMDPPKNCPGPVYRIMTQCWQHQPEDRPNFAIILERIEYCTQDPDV
Summary of the method: (§1)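 Test compounds, eight concentrations from 1 nM to 20 μM, were incubated with tagged recombinant kinase domain, poly(Glu-Tyr, 4:1) and 10 μM ATP. After 60 minutes at 37° C, Kinase-Glo luminescence quantified unconsumed ATP.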

[3] = tested on: K562; assay: Cell proliferation inhibition, Cell Titer-Glo, K562; type: cell-based; conditions: Homo sapiens; cell proliferation assay, K562 cells
Summary of the method: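 K562 cells were seeded at 2500-5000 cells per well in white, clear-bottomed 384-well culture plates and treated with dilutions of test compounds for typically 3 days. Viable cells were quantified with the Cell Titer-Glo Luminescent Cell Viability Assay (Promega), which measures total ATP, read on a luminescence plate reader to derive IC50 values for proliferation inhibition.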

[4] = target: T2, InsR (Homo sapiens, UniProt P06213); assay: Tyrosine kinase assay (Kinase-Glo or AlphaScreen), InsR; conditions: biochemical tyrosine kinase assay
T2 construct: 6×His- or GST-tagged kinase domain fragments of the corresponding RTKs expressed in baculovirus system; host or cells: baculovirus system
T2 sequence (P06213 1023-1298 limits assumed, species assumed): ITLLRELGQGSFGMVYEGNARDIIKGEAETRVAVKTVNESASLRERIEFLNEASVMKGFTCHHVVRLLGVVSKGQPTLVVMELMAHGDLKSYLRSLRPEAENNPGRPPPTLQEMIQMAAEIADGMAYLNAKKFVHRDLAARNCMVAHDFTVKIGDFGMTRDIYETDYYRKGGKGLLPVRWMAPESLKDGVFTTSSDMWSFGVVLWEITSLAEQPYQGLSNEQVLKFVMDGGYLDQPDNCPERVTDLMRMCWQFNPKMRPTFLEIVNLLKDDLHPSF
Summary of the method: as §1

[5] = target: T3, IGF1R tyrosine kinase (Homo sapiens, UniProt P08069); assay: IGF1R tyrosine kinase assay (Kinase-Glo ATP depletion or PT66/PT100 AlphaScreen); conditions: biochemical tyrosine kinase assay
T3 construct: 6×His- or GST-tagged kinase domain fragments of the corresponding RTKs expressed in baculovirus system; host or cells: baculovirus system
T3 sequence (P08069 999-1274 limits assumed): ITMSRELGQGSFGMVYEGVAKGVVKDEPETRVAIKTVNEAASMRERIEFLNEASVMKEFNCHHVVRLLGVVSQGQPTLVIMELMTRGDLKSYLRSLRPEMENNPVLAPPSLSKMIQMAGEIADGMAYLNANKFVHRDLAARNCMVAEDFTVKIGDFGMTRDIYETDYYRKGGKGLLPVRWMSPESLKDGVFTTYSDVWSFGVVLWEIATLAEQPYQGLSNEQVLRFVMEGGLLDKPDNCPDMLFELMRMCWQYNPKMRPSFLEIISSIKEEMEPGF
Summary of the method: as §1

[6] = target: T4, Jak2 (Homo sapiens, UniProt O60674); assay: Tyrosine kinase assay (Kinase-Glo or AlphaScreen), Jak2; conditions: biochemical tyrosine kinase assay
T4 construct: 6×His- or GST-tagged kinase domain fragments of the corresponding RTKs expressed in baculovirus system; host or cells: baculovirus system
T4 sequence (O60674 849-1124 limits assumed, species assumed): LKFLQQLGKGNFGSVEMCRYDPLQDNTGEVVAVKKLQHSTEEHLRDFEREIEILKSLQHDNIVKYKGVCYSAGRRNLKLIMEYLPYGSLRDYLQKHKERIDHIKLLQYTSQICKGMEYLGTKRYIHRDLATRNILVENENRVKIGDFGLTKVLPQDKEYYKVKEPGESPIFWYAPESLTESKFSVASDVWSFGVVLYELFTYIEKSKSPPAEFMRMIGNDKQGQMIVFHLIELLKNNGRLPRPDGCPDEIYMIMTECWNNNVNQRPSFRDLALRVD
Summary of the method: as §1

[7] = tested on: H929 (multiple myeloma); assay: Cell proliferation inhibition, Cell Titer-Glo, H929; type: cell-based; conditions: Homo sapiens, NCI-H929; cell proliferation assay, H929 cells
Procedure: IGF1R and other tyrosine kinase inhibitors can inhibit the proliferation of certain cancer cell lines indicating their possible therapeutic utility for treating the corresponding cancer types. Cancer cell lines of interest and control normal lines, including CHO, HEK293, BA/F3, MM1, H929, COLO205, PC3, DU145, MCF7, Panc1, ACHN, Hep G2, H460, K562, TT, U87-G, CAOV-3, SK-MEL5, Karpas 299, are plated in white, clear-bottomed 384-well cell culture plates at 2500-5000 cells per well and supplied with dilutions of tested compounds After a desired period of time (typically 3 days), the number of viable cells is quantitated by using Cell Titer-Glo Luminescent Cell Viability Assay (Promega), a cell proliferation assay system based on detection of total amount of ATP present as a measure of cell metabolic activity. The plated cells are mixed with the Cell Titer-Glo developing reagent and counted in a luminescence multiwell plate reader according to the standard manufacturer's protocol to generate IC50 curves for cell proliferation inhibition.
IGF1R and other tyrosine kinase inhibitors can inhibit the proliferation of certain cancer cell lines indicating their possible therapeutic utility for treating the corresponding cancer types. Cancer cell lines of interest and control normal lines, including CHO, HEK293, BA/F3, COLO205, PC3, DU145, MCF7, Panc1, ACHN, Hep G2, H460, K562, TT, U87-MG, CAOV-3, SK-MEL5, Karpas 299 and human multiple myeloma cell lines H929, MM1s, MM1r, UTMC2, CPM2, KMS11, My5, KMS12PE, My7, JJN3, KMS18, U266, SKMM2, RPMI-8226 are plated in white, clear-bottomed 384-well cell culture plates at 2500-5000 cells per well and supplied with dilutions of tested compounds After a desired period of time (typically 3 days), the number of viable cells is quantitated by using Cell Titer-Glo Luminescent Cell Viability Assay (Promega), a cell proliferation assay system based on detection of total amount of ATP present as a measure of cell metabolic activity. The plated cells are mixed with the Cell Titer-Glo developing reagent and counted in a luminescence multiwell plate reader according to the standard manufacturer's protocol to generate IC50 curves for cell proliferation inhibition. Results are typically reported as percent of growth (% viability =(OD72h(compound)−ODday0))/(OD72h(no compound)−ODday0). Alternatively, viable cells are quantitated by using the conventional colorimetric MTT assay. The MTT assay is based on the cleavage of the yellow tetrazolium salt MTT to purple formazan crystal by metabolic active cells. The formazan is then solubilized, and the concentration determined by optical density at 570 nm. The cells plated and incubated with a compound as described above are supplemented with the solution of MTT and incubated for 2-3 hours. The growth medium is removed and dimethyl sulfoxide is added into each well to dissolve the formazan. The absorbance is measured on an ELISA plate reader with a test wavelength of 570 nm and a background subtraction wavelength of 630 nm to obtain sample signal (OD570-OD630). […] The results are reported in terms of IC50 value for a particular compound and a cell line in the standard 3-day proliferation assay using Cell Titer-Glo. […] The results are reported in terms of IC50 value for a particular compound and a cell line in the standard 3-day proliferation assay using MTT assay.

[8] = tested on: Ba/F3; assay: Cell proliferation inhibition, Cell Titer-Glo, Ba/F3; type: cell-based; conditions: Mus musculus, BaF3; cell proliferation assay, Ba/F3 cells
Summary of the method: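 Ba/F3 cells were seeded at 2500-5000 cells per well in white, clear-bottomed 384-well culture plates and exposed to serial dilutions of test compounds for 3 days. Cell Titer-Glo Luminescent Cell Viability Assay (Promega) reagent, which measures total ATP as an indicator of metabolic activity, was added. Luminescence was read on a multiwell plate reader to derive IC50 values for inhibition of proliferation.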

Structure (SMILES) | IC50 [1] | IC50 [2] | IC50 [3] | IC50 [4] | IC50 [5] | IC50 [6] | IC50 [7] | IC50 [8]
COC[C@@H](C)N1C(=O)c2cc3nc(-c4c(NC[C@@H](O)c5cccc(Cl)c5)cc[nH]c4=O)[nH]c3cc2C1=O [compound 30] | > 15 µM | > 15 µM | > 15 µM | > 15 µM | > 15 µM | > 15 µM | > 15 µM | > 15 µM
O=C1c2cc3nc(-c4c(NC[C@@H](O)c5cccc(Cl)c5)cc[nH]c4=O)[nH]c3cc2C(=O)N1CCCN1CCCC1 [compound 35] | > 15 µM | 0.5 to 5 µM | > 15 µM | < 0.5 µM | < 0.5 µM | 0.5 to 5 µM | 5 to 15 µM | > 15 µM
COCCN1C(=O)c2cc3nc(-c4c(NC[C@@H](O)c5cccc(Cl)c5)cc[nH]c4=O)[nH]c3cc2C1=O [compound 36] | > 15 µM | > 15 µM | > 15 µM | > 15 µM | > 15 µM | > 15 µM | 0.5 to 5 µM | > 15 µM
CN1CCC(N2C(=O)c3cc4nc(-c5c(NCC(O)COc6cccc(Cl)c6)cc[nH]c5=O)[nH]c4cc3C2=O)CC1 (stereo not drawn) [compound 38] | > 15 µM | 0.5 to 5 µM | 5 to 15 µM | 0.5 to 5 µM | 0.5 to 5 µM | 0.5 to 5 µM | 0.5 to 5 µM | > 15 µM
COc1ccc(OCC(O)CNc2cc[nH]c(=O)c2-c2nc3cc4c(cc3[nH]2)C(=O)N(C2CCN(C)CC2)C4=O)cc1 (stereo not drawn) [compound 42] | > 15 µM | 5 to 15 µM | 5 to 15 µM | 0.5 to 5 µM | < 0.5 µM | 5 to 15 µM | 5 to 15 µM | > 15 µM
CN1CCC(N2C(=O)c3cc4nc(-c5c(NC[C@@H](O)COc6ccc7c8c6CCCN8CCC7)cc[nH]c5=O)[nH]c4cc3C2=O)CC1 [compound 86] | 5 to 15 µM | 0.5 to 5 µM | 5 to 15 µM | 5 to 15 µM | 0.5 to 5 µM | 0.5 to 5 µM | > 15 µM | > 15 µM
Cc1cccc(OCC(O)CNc2cc[nH]c(=O)c2-c2nc3cc4c(cc3[nH]2)C(=O)N(C2CCN(C)CC2)C4=O)c1 (stereo not drawn) [compound 105] | > 15 µM | 5 to 15 µM | 5 to 15 µM | 0.5 to 5 µM | 0.5 to 5 µM | 0.5 to 5 µM | – | > 15 µM
COc1ccc2c(ccn2C[C@H](O)CNc2cc[nH]c(=O)c2-c2nc3cc4c(cc3[nH]2)C(=O)N(C2CCN(C)CC2)C4=O)c1 [compound 113] | > 15 µM | < 0.5 µM | > 15 µM | 0.5 to 5 µM | 0.5 to 5 µM | 0.5 to 5 µM | > 15 µM | > 15 µM
Cc1ccc(OC[C@H](O)CNc2cc[nH]c(=O)c2-c2nc3cc4c(cc3[nH]2)C(=O)N(CCCN2CCCC2)C4=O)c2c1CCC2 [compound 114] | > 15 µM | 0.5 to 5 µM | > 15 µM | < 0.5 µM | < 0.5 µM | 0.5 to 5 µM | > 15 µM | > 15 µM
Cc1ccc(OC[C@H](O)CNc2cc[nH]c(=O)c2-c2nc3cc4c(cc3[nH]2)C(=O)N(CC(C)(C)CN(C)C)C4=O)c(C)c1 [compound 116] | 5 to 15 µM | 5 to 15 µM | > 15 µM | < 0.5 µM | < 0.5 µM | 0.5 to 5 µM | > 15 µM | > 15 µM
Cc1c(Cl)cccc1OC[C@H](O)CNc1cc[nH]c(=O)c1-c1nc2cc3c(cc2[nH]1)C(=O)N(CC(C)(C)CN(C)C)C3=O [compound 117] | 5 to 15 µM | 5 to 15 µM | > 15 µM | < 0.5 µM | < 0.5 µM | 0.5 to 5 µM | > 15 µM | > 15 µM
Cc1c(Cl)cccc1OC[C@H](O)CNc1cc[nH]c(=O)c1-c1nc2cc3c(cc2[nH]1)C(=O)N(CC1CCN(CCO)CC1)C3=O [compound 119] | > 15 µM | 0.5 to 5 µM | > 15 µM | < 0.5 µM | < 0.5 µM | 0.5 to 5 µM | – | > 15 µM
CN(C)CCN1CCC(N2C(=O)c3cc4nc(-c5c(NC[C@@H](O)COc6c(F)ccc(Cl)c6F)cc[nH]c5=O)[nH]c4cc3C2=O)CC1 [compound 128] | > 15 µM | 0.5 to 5 µM | > 15 µM | 0.5 to 5 µM | < 0.5 µM | 0.5 to 5 µM | – | > 15 µM

Now from value to compound:

IC50 [1] | IC50 [2] | IC50 [3] | IC50 [4] | IC50 [5] | IC50 [6] | IC50 [7] | IC50 [8] | Structure (SMILES)
5 to 15 µM | 5 to 15 µM | 5 to 15 µM | 0.5 to 5 µM | 0.5 to 5 µM | > 15 µM | 5 to 15 µM | > 15 µM | CN1CCC(N2C(=O)c3cc4nc(-c5c(N[C@@H](CO)Cc6c[nH]cn6)cc[nH]c5=O)[nH]c4cc3C2=O)CC1 [compound 3]
0.5 to 5 µM | 0.5 to 5 µM | 5 to 15 µM | 0.5 to 5 µM | 0.5 to 5 µM | 0.5 to 5 µM | 5 to 15 µM | 5 to 15 µM | CN1CCC(N2C(=O)c3cc4nc(-c5c(NCCc6c[nH]cn6)cc[nH]c5=O)[nH]c4cc3C2=O)CC1 [compound 4]
0.5 to 5 µM | 5 to 15 µM | 5 to 15 µM | 0.5 to 5 µM | 0.5 to 5 µM | 5 to 15 µM | 5 to 15 µM | 0.5 to 5 µM | COc1ccccc1OCC(O)CNc1cc[nH]c(=O)c1-c1nc2cc3c(cc2[nH]1)C(=O)N(C1CCN(C)CC1)C3=O (stereo not drawn) [compound 41]
0.5 to 5 µM | > 15 µM | 0.5 to 5 µM | 5 to 15 µM | 5 to 15 µM | 0.5 to 5 µM | 5 to 15 µM | 5 to 15 µM | COc1cc(C#N)ccc1OC[C@H](O)CNc1ccnc(O)c1-c1nc2cc3c(cc2[nH]1)C(=O)N(C1CCN(C)CC1)C3=O [compound 90]
0.5 to 5 µM | 0.5 to 5 µM | 5 to 15 µM | 0.5 to 5 µM | 0.5 to 5 µM | 0.5 to 5 µM | – | 5 to 15 µM | CN1CCC(N2C(=O)c3cc4nc(-c5c(NC[C@@H](O)Cn6ccc7c(C#N)cccc76)cc[nH]c5=O)[nH]c4cc3C2=O)CC1 [compound 112]
0.5 to 5 µM | 0.5 to 5 µM | > 15 µM | < 0.5 µM | < 0.5 µM | 0.5 to 5 µM | – | 5 to 15 µM | COc1ccc(OC[C@H](O)CNc2cc[nH]c(=O)c2-c2nc3c(C)c4c(cc3[nH]2)C(=O)N(C2CCN(C)CC2)C4=O)c(C)c1Cl [compound 138]
